According to US20170368089A1, “COMPOSITION FOR PREVENTING OR TREATING COLITIS” (UNIVERSITY-INDUSTRY COOPERATION GROUP OF KYUNG HEE …, priority 2012, published 2017):

Tests used:
Type in all cases: in vivo, ICR male mice
[1] = system: model animal with acute colitis induced by TNBS; test: Acute colitis induced by TNBS in mice: weight change, macroscopic score, colon length, MPO activity, 4th experiment (Timosaponin A-III); conditions: FIGS. 38 to 41; 10 and 20 mg/mouse kg orally
Procedure: 4-week ICR male mice (24 to 27 g) were purchased from OrientBio. All the mice were bred under the controlled environmental conditions of 50±10% of humidity and 25±2° C. of temperature, and the lighting was repeatedly on for 12 hours and off for 12 hours. A feed for a standard experiment (Samyang, Korea) was used as a feed, and water was freely taken. For all the experiments, one group was 6 mice.
(2) Induction of acute colitis by TNBS and sample administration Among the experimental groups, one group was set as a normal group, and for the experimental animals in other groups, colitis was induced with 2,4,6-trinitrobenzenesulfonic acid (TNBS). […]
The sample administration to the model animals with acute colitis induced by TNBS was stopped, and at the next day, the weights of the experimental animals were measured, and then, the measured weights were compared with the initial weights to calculate the change amounts of weights […]
200 μl of lysis buffer was added to 100 mg of colon tissue, and then, the colon tissue was homogenized. […] In the supernatant, the MPO activity was measured using a mouse MPO assay ELISA kit (Hbt HK210, USA). […]

[2] = system: model animal with acute colitis induced by TNBS; test: Acute colitis induced by TNBS in mice, appearance analysis of colon (colon length, macroscopic score), first experiment; conditions: Table 3 (group 2), TNBS-treated mice, 3 days; for Macroscopic score (Mean score): score 0-5
Procedure: 4-week ICR male mice (24 to 27 g) were purchased from OrientBio. All the mice were bred under the controlled environmental conditions of 50±10% of humidity and 25±2° C. of temperature, and the lighting was repeatedly on for 12 hours and off for 12 hours. A feed for a standard experiment (Samyang, Korea) was used as a feed, and water was freely taken. For all the experiments, one group was 6 mice. […] Meanwhile, 0.1 ml of normal saline solution was orally administered to the normal group. Since then, from the next day, the sample dissolved in normal saline solution was orally administered in the volume that was decided in advance one time a day for 3 days. At the next day after completing the sample administration, the experimental animals were suffocated to death with carbon dioxide, the colon from appendix to the region just before the anus was removed from the colon region. The scores about the removed colons were estimated by observing the appearances and the lengths of the colons according to the following criteria (Hollenbach, and the like, the criteria about the level of colon in 2005) as listed in Table 1. […] In addition, some of the content in the colon was collected in order to analyze the rumen microorganisms, and then, was stored in a freezer of −80° C. From the tissue of colon, the content in the colon was completely removed and then the tissue of colon was washed with normal saline solution. Since then, some of the tissue was fixed with 4% formaldehyde fixing solution in order to be used as a sample for a histopathological examination, and the rest was stored in a freezer of −80° C. for a molecular biological analysis.

[3] = system: TNF-alpha; test: TNF-alpha expression in colon tissue (ELISA), TNBS colitis, first experiment; conditions: Table 5 (group 2), TNBS-treated mice, 3 days
Procedure: (§1) Among the experimental groups, one group was set as a normal group, and for the experimental animals in other groups, colitis was induced with 2,4,6-trinitrobenzenesulfonic acid (TNBS). In detail, after lightly anesthetizing the experimental animals with ether, 0.1 ml of the solution prepared by mixing […] of 2,4,6-Trinitrobenzene sulfonic acid (NBS) solution with 50% ethanol was injected into the colon through the anus using a syringe having 1 ml volume and oval point, respectively; and then, the syringe was vertically picked up, and then, maintained for 30 seconds to induce the inflammation. Meanwhile, 0.1 ml of normal saline solution was orally administered to the normal group. Since then, from the next day, the sample dissolved in normal saline solution was orally administered in the volume that was decided in advance one time a day for 3 days. At the next day after completing the sample administration, the experimental animals were suffocated to death with carbon dioxide, the colon from appendix to the region just before the anus was removed from the colon region.
(§2) 250 μl of RIPA butter including protease inhibitor cocktail was added to 100 mg of the colon tissue of experimental animal, and then, the colon tissue was homogenized. Since then, the homogenized colon tissue was centrifuged under the conditions of 4° C. and 13000 rpm for 15 minutes to obtain supernatant. While the supernatant was stored at −80° C., the expression amounts of IL-1 beta, IL-6, and TNF-alpha were measured using a 96-well ELISA plate kits (Pierce Biotechology, Inc., Rockford, Ill., USA).

[4] = system: Myeloperoxidase (MPO); test: MPO activity of colon tissue (mouse MPO ELISA kit), TNBS colitis, first experiment; conditions: Table 3 (group 2), TNBS-treated mice, 3 days
Procedure: as §1
200 μl of lysis buffer was added to 100 mg of colon tissue, and then, the colon tissue was homogenized. Since then, the homogenized colon tissue was centrifuged under the conditions of 4° C. and 13000 rpm for 15 minutes, and then, the supernatant thereof was obtained. In the supernatant, the MPO activity was measured using a mouse MPO assay ELISA kit (Hbt HK210, USA). 100 μl of the supernatant was added in a 96 well plate, and then, reacted at room temperature for 1 hour. After completing the reaction, the plate was overturned and emptied; was repeatedly washed three times with 200 μl of washing buffer solution; 100 μl of diluted tracer was added thereto; and then the reaction was performed at room temperature for 1 hour. After completing the reaction, the plate was overturned and emptied; and then each well in the plate was washed using 200 μl of washing buffer solution. After repeatedly performing the washing processes three times using 200 μl of washing buffer solution, 100 μl of diluted streptavidin-peroxidase conjugate was added thereto, and then, the reaction was performed at room temperature for 1 hour. After completing the reaction, the plate was overturned and emptied, and then, each well in the plate was washed with 200 μl of washing buffer solution. After the washing processes were repeatedly performed three times using 200 μl of washing buffer solution, 100 μl of TMB substrate solution was added thereto; the plate was wrapped in an aluminum foil to block out the light; and then, the reaction was performed at room temperature for 30 minutes. Since then, 100 μl of a stop solution was added to stop the reaction, and then, the absorbance was measured at 450 nm using an ELISA reader.

[5] = system: IL-1 beta; test: IL-1 beta expression in colon tissue (ELISA), TNBS colitis, first experiment; conditions: Table 5 (group 2), TNBS-treated mice, 3 days
Procedure: as §1, §2

[6] = system: IL-6; test: IL-6 expression in colon tissue (ELISA), TNBS colitis, first experiment; conditions: Table 5 (group 2), TNBS-treated mice, 3 days
Procedure: as §1, §2

## C[C@H]1CC[C@@]2(OC1)O[C@H]1C[C@H]3[C@@H]4CC[C@@H]5C[C@@H](O[C@@H]6O[C@H](CO)[C@H](O)[C@H](O)[C@H]6O[C@@H]6O[C@H](CO)[C@@H](O)[C@H](O)[C@H]6O)CC[C@]5(C)[C@H]4CC[C@]3(C)[C@H]1[C@@H]2C [Timosaponin A-III]
[1]
  effect on alleviating or improving acute colitis induced by TNBS (weight change, macroscopic score, colon length, MPO activity; in words): effect on alleviating or improving acute colitis induced by TNBS according to the concentration dependent

## O=c1c2cc(O[C@@H]3O[C@H](CO)[C@@H](O)[C@H](O)[C@H]3O)c(O)cc2oc2cc(O)c([C@@H]3O[C@H](CO)[C@@H](O)[C@H](O)[C@H]3O)c(O)c12 [neomangiferin, Neomangiferin]
[2]; 10 mg/kg orally
  Colon length: 5.78 ± 0.10 cm
  Macroscopic score (Mean score): 2.8 ± 0.51
[3]; 10 mg/kg orally
  TNF-alpha conc.: 93.6 ± 9.2 pg/mg
[4]; 10 mg/kg orally
  MPO activity: 0.6 ± 0.2 μUnit/mg
[5]; 10 mg/kg orally
  IL-1 beta conc.: 62.2 ± 5.1 pg/mg
[6]; 10 mg/kg orally
  IL-6 conc.: 6.9 ± 1.2 pg/mg

## O=c1c2cc(O)c(O)cc2oc2cc(O)c([C@@H]3O[C@H](CO)[C@@H](O)[C@H](O)[C@H]3O)c(O)c12 [mangiferin, Mangiferin]
[2]; 10 mg/kg orally
  Colon length: 5.81 ± 0.09 cm
  Macroscopic score (Mean score): 2.7 ± 0.45
[2]; 20 mg/kg orally
  Colon length: 6.98 ± 0.21 cm
  Macroscopic score (Mean score): 1.7 ± 0.27
[3]; 10 mg/kg orally
  TNF-alpha conc.: 83.8 ± 10.9 pg/mg
[3]; 20 mg/kg orally
  TNF-alpha conc.: 40.8 ± 10.9 pg/mg
[4]; 10 mg/kg orally
  MPO activity: 0.5 ± 0.2 μUnit/mg
[4]; 20 mg/kg orally
  MPO activity: 0.2 ± 0.2 μUnit/mg
[5]; 10 mg/kg orally
  IL-1 beta conc.: 57.4 ± 2.1 pg/mg
[5]; 20 mg/kg orally
  IL-1 beta conc.: 28.1 ± 12.1 pg/mg
[6]; 10 mg/kg orally
  IL-6 conc.: 5.0 ± 0.6 pg/mg
[6]; 20 mg/kg orally
  IL-6 conc.: 2.2 ± 0.8 pg/mg
